Patent US20220304992A1, “METHODS OF REJUVENATING AGED TISSUE BY INHIBITING 15-HYDROXYPROSTAGLANDIN DEHYDROGENASE (15-PGDH)” (The Board of Trustees of the Leland Stanford Junior …, priority 2019, published 2022)
“Also recorded” adds a separate entry of the source.

Assays:
[1] = test system: aged muscle transcriptome; assay: RNA sequencing of vehicle and SW treated aged muscles; type: in vivo, mouse; details: SW 1 month
From the text: For RNA-seq, RNA was isolated from muscle lysates using Trizol reagent (Thermoscientific) and purified using Qiagen RNAEasy kit from. Libraries were constructed from RNA with the TruSEQ RNA Library Preparation Kit v2 (Illumina) and sequenced to 30-40×10^6×75-bp reads per sample on a NextSeq 550 from the Stanford Functional Genomics Facility.
For the RNA-Seq analysis, the sequences were aligned against the Mus musculus genome (mm9) using STAR (16). RSEM was used for calling transcripts and calculating transcripts per million (TPM) values as well as total counts (17). A counts matrix containing the number of counts for each gene and each sample was obtained. This matrix was analyzed by DESeq2 to calculate statistical analysis of significance of genes between samples (18). […] Heatmaps were generated on normalized counts and plotted on Z-score across rows using Seaborn data visualization library in python. The data reported in this paper have been deposited in the Gene Expression Omnibus (GEO) database GSE149924.

myotubes = assay: Differentiated (starved) cultured myotubes: Atrogin1 expression and diameter; type: cell-based, mouse; details: starved (24 hr) or non-starved myotubes; PGE2 10 ng/ml, SW 1 μM; listed as SW
Description: For myotubes we performed fixation using 4% PFA, blocking and permeabilization using PBS/1% BSA/0.1% Triton X-100 and staining with primary antibodies anti-MyHC (Thermo Fisher Scientific, catalog #14-6503-82, clone MF-20, 1:500) and then with AlexaFluor secondary Antibodies (Jackson ImmunoResearch Laboratories, 1:500). We counterstained nuclei with DAPI (Invitrogen).
Primary myoblasts were grown in myogenic cell culture medium containing DMEM/F10 (50:50), 15% FBS, 2.5 ng ml-1 fibroblast growth factor-2 and 1% penicillin-streptomycin. For differentiation experiments, confluent myoblasts were grown in medium containing 5% horse serum, DMEM. […] Myoblasts were isolated from EP4^fl/fl mice and received either a mCherry/Cre lentivirus or a mock infection as previously described (5).
For cultured myotubes we performed fixation using 4% PFA, blocking and permeabilization using PBS/1% BSA/0.1% Triton X-100 and staining with primary antibodies anti-MYH (Thermo Fisher Scientific, catalog #14-6503-82, clone MF-20, 1:500) and then with AlexaFluor secondary Antibodies (Jackson ImmunoResearch Laboratories, 1:500). We counterstained nuclei with DAPI (Invitrogen). We acquired images using the KEYENCE BZ-X700 all-in-one fluorescence microscope (Keyence) with 20x/0.75 N.A. objectives. We analyzed the fiber area using the Keyence Advanced Analysis Software. For fiber area the entire maximum cross-sectional area of the muscle was quantified or at least 10 fields of LAMININ or WGA stained myofiber cross-sections encompassing over 400 myofibers were captured for each mouse as above. For fiber typing analysis, the MATLAB application SMASH-Semi-Automatic Muscle Analysis Using Segmentation of Histology, was used as previously described (12). Data analyses were blinded. The researchers performing the imaging acquisition and scoring were unaware of treatment condition given to sample groups analyzed.
Primary murine myoblasts were grown in myogenic cell culture medium containing DMEM/F10 (50:50), 15% FBS, 2.5 ng ml^−1 fibroblast growth factor-2 and 1% penicillin-streptomycin. […] For differentiation experiments, confluent myoblasts were grown in medium containing 5% horse serum, DMEM.

## CCCC[S+]([O-])c1sc2nc(-c3cccs3)cc(-c3ccccc3)c2c1N (stereo not drawn) [SW033291, 2-(butylsulfinyl)-4-phenyl-6-(thiophen-2-yl)thieno[2,3-b]pyridin-3-amine]
[1]
  Hdac4 expression: diminished
  components of mitochondria complexes I, II, IV and V of the electron transport chain: markedly increased
  members of ubiquitin signaling pathways: downregulated
  mitochondrial pathways (KEGG/GO enrichment of upregulated genes): strong enrichment
[1]; listed as SW
  expression of TGF-beta pathway genes (Mstn, Tgfb2, Acvr2a, Smad3): decreased; also recorded: markedly reduced
myotubes
  myotube diameter: no increase; also recorded: no effect
